Experimental findings from patent publication US10745399B2 (priority 2015, dated 2020) are described below.

In test [1] the target is human recombinant ATM (Homo sapiens (Human), UniProt Q13315). Kind of test: ATM kinase assay (IC50 ATM), TR-FRET. Format: biochemical. On the procedure: ATM Kinase Assay—Determination of ATM Inhibition (IC50 ATM):
The IC50 value was determined with the aid of a biochemical ATM kinase assay. The assay consists of two steps: the enzymatic reaction and the detection step. Firstly, ATM (ataxia telangiectasia mutated) protein and the test substance are incubated at different concentrations with addition of substrate protein p53 and ATP. ATM mediates the phosphorylation of p53 at several positions, including at amino acid S15. The amount of phosphorylated p53 is determined with the aid of specific antibodies and the TR-FRET technique. The enzymatic ATM assay is carried out as TR-FRET (HTRF™, Cisbio Bioassays) based 384-well assay. In the first step, purified human recombinant ATM (human ATM, full length, GenBank ID NM_000051, expressed in a mammal cell line) is incubated in assay buffer for 15 minutes with the ATM inhibitor in various concentrations and without test substance as negative or neutral control. The assay buffer comprises 25 mM HEPES pH 8.0, 10 mM Mg(CH3COO)2, 1 mM MnCl2, 0.1% BSA and 0.01% Brij® 35, 5 mM dithiothreitol (DTT). […] In the second step, purified human recombinant cmyc-labelled p53 (human p53, full length, GenBank ID BC003596, expressed in Sf21 insect cells) and ATP are added, and the reaction mixture is incubated at 22° C. for 30-35 minutes. The pharmacologically relevant assay volume is 5 μl. […] The enzymatic reaction is stopped by addition of EDTA. […] After incubation, usually for 2 hours (between 1.5 and 15 h), for signal development, the plates are analysed in a plate reader (EnVision, PerkinElmer) using TRF mode (and with laser excitation). […] The measurement data were processed by means of Genedata Screener software. IC50 determinations are carried out, in particular, by fitting a dose/action curve to the data points by means of nonlinear regression analysis.

Test [2] deals with PI3K (p120γ) (human) (Homo sapiens (Human), UniProt P48736). Kind of test: PI3K (p120γ) (human), non-radioactive assay (HTRF). The format is biochemical. The note with it: read-out: IC50 (PI3Kgamma). The protocol: The reaction was initiated by addition of MgATP solution. After an incubation time of 30 min at room temperature, the reaction was stopped by addition of a solution consisting of EDTA and biotinylated phosphatidylinositol 3,4,5-trisphosphate. Finally, the detection buffer, consisting of a europium-labelled anti-GST monoclonal antibody, a GST-labelled GRP1 PH domain and streptavidin allophycocyanin, was added.
For orientation: TR-FRET usually uses a lanthanide donor and a delayed reading to cut background.

Test [3] has as its target PI3K p110δ/p85α (human) (Homo sapiens (Human), UniProt O00329). Kind of test: PI3K p110δ/p85α (human), non-radioactive assay (HTRF). Conditions: read-out: IC50 (PI3Kdelta). The format is biochemical. On the procedure: (§1) The reaction was initiated by addition of MgATP solution. After an incubation time of 30 min at room temperature, the reaction was stopped by addition of a solution consisting of EDTA and biotinylated phosphatidylinositol 3,4,5-trisphosphate. Finally, the detection buffer, consisting of a europium-labelled anti-GST monoclonal antibody, a GST-labelled GRP1 PH domain and streptavidin allophycocyanin, was added. The plate was read out via homogeneous time-resolved fluorescence (HTRF) and the corresponding signals were evaluated via the formula HTRF=10000×(Em665 nm/Em620 nm).

The test system of test [4] is CHK2 phosphorylation (phospho-Thr68) in HCT116 cells. Kind of test: Cellular pCHK2 assay, bleomycin-induced phosphorylation of CHK2 (phospho-Thr68), immunofluorescence high content. Format: cell-based. The note with it: Homo sapiens, read-out: IC50 (pCHK2).
Test [5] addresses PI3K p110α/p85α (human) (Homo sapiens (Human), UniProt P42336). Kind of test: PI3K p110α/p85α (human), non-radioactive assay (HTRF). Format: biochemical. The note with it: read-out: IC50 (PI3Kalpha). The protocol: The reaction was initiated by addition of MgATP solution. After incubation at room temperature for 40 minutes, the reaction was stopped by addition of a solution consisting of EDTA and biotinylated phosphatidylinositol 3,4,5-trisphosphate. Finally, the detection buffer, consisting of a europium-labelled anti-GST monoclonal antibody, a GST-labelled GRP1 PH domain and streptavidin allophycocyanin, was added. The plate was read out via homogeneous time-resolved fluorescence (HTRF) and the corresponding signals were evaluated via the formula HTRF=10000×(Em665 nm/Em620 nm).

Test [6] concerns the target mTOR (human) (Homo sapiens (Human), UniProt P42345). Kind of test: mTOR (human) radiometric kinase assay. The format is biochemical. On the procedure: mTOR (human) was incubated with 50 mM HEPES pH 7.5, 1 mM EGTA, 0.01% Tween 20, 2 mg/ml of the substrate, 3 mM MnCl2 and [γ-^33P-ATP] (specific activity approximately 500 cpm/pmol, concentration as necessary). The reaction was initiated by addition of MgATP solution. After incubation at room temperature for 40 minutes, the reaction was stopped by addition of 3% phosphoric acid. 10 μl of the reaction solution were then transferred dropwise onto a P30 filtermat and washed three times for 5 min in 75 mM phosphoric acid and once in methanol, dried and evaluated by means of liquid scintillation counting.

Test [7] addresses PI3K p110β/p85α (human) (Homo sapiens (Human), UniProt P42338). The experiment in a line: PI3K p110β/p85α (human), non-radioactive assay (HTRF). The format is biochemical. On the procedure: PI3K p110β/p85a (Human), Non-Radioactive Assay
as §1, with “PI3K p110β/p85α (human) was incubated in an assay buffer comprising 10 μM phosphatidylinositol 4,5-bisphosphate and MgATP (concentration as necessary). The reaction” for “The reaction”

Where [8] appears, read: HCT-116, HCT116 cells, 10 μM bleomycin, 4 h.

Each structure is given as a SMILES string. Read-outs that look alike come from different tables or passages of the source.

Chain of human recombinant ATM (Q13315 whole entry): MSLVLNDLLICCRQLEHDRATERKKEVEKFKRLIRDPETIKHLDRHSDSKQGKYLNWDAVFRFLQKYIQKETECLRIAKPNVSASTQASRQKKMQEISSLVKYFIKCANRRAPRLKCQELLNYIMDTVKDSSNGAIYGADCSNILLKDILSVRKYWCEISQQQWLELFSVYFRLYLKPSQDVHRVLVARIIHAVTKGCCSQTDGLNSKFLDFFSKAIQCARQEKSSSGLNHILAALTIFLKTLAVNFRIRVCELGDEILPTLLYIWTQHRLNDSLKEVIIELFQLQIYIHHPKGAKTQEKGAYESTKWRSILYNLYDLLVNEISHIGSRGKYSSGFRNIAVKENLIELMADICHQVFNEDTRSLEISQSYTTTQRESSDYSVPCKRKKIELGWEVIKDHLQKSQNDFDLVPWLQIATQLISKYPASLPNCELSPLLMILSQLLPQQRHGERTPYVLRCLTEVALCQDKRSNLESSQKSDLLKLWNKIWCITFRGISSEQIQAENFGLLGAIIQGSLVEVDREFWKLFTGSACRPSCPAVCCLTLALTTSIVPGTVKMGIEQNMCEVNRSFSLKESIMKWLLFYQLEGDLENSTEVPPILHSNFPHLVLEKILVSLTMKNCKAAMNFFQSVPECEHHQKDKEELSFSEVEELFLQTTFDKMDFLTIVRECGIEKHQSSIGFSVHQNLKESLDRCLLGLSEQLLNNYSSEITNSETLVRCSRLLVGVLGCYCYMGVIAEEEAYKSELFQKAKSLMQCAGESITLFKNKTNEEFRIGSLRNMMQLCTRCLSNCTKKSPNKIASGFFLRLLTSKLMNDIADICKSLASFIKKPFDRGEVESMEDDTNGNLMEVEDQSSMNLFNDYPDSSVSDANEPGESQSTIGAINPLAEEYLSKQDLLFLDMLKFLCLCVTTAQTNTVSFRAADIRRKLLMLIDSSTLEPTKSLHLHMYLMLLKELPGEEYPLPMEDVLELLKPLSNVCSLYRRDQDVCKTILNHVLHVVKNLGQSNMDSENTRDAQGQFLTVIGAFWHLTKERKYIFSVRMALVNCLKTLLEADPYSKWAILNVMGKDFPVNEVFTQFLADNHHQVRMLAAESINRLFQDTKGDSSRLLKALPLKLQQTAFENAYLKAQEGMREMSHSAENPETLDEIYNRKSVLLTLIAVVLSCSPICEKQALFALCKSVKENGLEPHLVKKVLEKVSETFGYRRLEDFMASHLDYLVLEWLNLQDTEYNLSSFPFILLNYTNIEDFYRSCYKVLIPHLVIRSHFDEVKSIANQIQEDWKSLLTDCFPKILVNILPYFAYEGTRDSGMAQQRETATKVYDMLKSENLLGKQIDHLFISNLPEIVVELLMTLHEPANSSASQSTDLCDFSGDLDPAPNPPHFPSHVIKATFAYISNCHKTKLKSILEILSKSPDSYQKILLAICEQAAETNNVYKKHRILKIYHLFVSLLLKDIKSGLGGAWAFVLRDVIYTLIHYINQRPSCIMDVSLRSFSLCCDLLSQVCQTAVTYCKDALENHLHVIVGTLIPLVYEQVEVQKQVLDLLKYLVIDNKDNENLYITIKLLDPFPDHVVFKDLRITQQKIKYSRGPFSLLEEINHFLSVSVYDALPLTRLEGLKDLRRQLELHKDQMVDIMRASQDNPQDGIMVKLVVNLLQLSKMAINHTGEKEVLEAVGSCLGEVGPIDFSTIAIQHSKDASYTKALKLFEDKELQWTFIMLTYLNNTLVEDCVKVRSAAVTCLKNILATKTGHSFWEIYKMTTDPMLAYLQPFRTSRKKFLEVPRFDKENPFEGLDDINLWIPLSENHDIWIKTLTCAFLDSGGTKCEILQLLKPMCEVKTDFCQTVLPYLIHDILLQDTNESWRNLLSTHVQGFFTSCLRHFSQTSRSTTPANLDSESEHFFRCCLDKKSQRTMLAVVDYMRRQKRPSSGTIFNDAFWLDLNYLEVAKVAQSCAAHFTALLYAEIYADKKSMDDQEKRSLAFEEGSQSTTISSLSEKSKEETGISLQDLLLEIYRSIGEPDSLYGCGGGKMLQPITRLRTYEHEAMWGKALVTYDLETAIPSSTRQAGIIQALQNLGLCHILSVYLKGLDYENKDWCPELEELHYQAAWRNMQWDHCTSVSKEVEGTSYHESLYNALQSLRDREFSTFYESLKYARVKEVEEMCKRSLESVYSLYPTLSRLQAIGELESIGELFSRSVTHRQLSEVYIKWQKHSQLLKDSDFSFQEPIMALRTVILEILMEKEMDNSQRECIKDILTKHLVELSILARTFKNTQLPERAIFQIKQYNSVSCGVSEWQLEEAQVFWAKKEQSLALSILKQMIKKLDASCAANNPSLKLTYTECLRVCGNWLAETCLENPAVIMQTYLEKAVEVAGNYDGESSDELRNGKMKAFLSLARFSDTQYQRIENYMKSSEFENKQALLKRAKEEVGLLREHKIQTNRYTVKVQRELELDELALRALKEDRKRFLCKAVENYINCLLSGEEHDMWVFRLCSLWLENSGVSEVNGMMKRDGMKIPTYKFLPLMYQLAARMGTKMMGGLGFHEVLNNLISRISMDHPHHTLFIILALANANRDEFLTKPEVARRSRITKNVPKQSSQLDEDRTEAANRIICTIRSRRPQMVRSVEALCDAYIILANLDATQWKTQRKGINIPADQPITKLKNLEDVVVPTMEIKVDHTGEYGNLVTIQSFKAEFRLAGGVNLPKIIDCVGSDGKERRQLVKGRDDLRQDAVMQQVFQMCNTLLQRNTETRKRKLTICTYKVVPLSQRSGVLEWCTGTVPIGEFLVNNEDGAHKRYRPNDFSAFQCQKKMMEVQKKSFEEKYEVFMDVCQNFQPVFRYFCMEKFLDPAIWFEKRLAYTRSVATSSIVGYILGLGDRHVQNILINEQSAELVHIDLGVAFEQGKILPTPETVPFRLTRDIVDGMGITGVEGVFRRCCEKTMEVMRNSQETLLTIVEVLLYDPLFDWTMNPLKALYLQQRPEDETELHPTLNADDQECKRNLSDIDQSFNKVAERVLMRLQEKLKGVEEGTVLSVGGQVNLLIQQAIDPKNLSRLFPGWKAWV
Chain of PI3K p110β/p85α (human) (P42338 whole entry): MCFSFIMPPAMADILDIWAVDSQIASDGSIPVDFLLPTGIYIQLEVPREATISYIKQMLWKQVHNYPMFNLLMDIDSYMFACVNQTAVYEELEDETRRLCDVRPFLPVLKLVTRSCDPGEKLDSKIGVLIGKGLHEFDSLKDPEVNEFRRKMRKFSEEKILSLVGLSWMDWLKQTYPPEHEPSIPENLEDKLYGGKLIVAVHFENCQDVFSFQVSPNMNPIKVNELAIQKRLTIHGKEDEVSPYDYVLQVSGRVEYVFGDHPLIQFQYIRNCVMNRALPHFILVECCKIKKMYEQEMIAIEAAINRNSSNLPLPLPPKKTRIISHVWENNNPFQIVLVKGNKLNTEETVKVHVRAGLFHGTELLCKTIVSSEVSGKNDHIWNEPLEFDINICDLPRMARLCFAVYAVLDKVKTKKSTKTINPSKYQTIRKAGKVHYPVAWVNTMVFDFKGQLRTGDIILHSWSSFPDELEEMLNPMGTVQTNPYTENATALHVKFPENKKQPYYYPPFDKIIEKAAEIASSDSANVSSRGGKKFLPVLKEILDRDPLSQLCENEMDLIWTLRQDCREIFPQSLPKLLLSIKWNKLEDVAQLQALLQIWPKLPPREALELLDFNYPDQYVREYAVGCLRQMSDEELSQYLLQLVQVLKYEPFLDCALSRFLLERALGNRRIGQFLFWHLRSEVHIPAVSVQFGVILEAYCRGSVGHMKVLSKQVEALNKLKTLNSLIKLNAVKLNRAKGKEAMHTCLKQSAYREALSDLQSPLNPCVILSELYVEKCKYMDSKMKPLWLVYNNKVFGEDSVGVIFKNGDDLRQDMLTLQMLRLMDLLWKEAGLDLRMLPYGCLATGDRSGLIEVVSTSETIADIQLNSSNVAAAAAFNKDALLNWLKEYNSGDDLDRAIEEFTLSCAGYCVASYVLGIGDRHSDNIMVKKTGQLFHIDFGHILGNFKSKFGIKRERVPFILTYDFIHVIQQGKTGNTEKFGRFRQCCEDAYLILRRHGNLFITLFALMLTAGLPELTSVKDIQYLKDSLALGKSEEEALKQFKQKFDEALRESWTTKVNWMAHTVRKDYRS
Chain of PI3K p110β/p85α (human) (P27986 whole entry partner): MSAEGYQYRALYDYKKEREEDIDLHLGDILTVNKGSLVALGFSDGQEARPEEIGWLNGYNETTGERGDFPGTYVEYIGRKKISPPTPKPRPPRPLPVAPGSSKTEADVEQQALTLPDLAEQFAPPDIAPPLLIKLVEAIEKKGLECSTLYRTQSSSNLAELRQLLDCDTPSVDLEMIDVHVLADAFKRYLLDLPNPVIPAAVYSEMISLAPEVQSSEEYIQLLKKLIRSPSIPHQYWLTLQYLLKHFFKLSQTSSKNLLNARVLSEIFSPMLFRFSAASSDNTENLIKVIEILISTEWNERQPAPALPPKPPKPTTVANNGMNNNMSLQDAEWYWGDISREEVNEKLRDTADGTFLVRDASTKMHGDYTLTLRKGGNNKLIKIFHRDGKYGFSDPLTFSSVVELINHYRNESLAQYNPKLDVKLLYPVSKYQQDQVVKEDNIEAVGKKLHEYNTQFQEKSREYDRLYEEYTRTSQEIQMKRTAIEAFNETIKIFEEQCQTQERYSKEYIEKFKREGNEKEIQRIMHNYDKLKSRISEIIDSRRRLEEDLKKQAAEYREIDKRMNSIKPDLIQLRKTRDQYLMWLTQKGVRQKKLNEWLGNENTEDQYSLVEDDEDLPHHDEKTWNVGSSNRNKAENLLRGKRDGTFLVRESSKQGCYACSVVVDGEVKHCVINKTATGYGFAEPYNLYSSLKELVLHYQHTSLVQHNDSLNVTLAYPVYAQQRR

In the case of `COc1cc2ncc3c(c2cc1-c1cnn(C)c1)n(-c1ncc(F)cc1F)c(=O)n3C` [Compound Example 1, 1-(3,5-Difluoropyridin-2-yl)-7-methoxy-3-methyl-8-(1-methyl-1H-pyrazol-4-yl)-1,3-dihydroimidazo[4,5-c] quinolin-2-one], in test [1] (10 μM ATP, p53 substrate), the IC50 is less than 1 nM.
With `CCn1cc(-c2cc3c(cc2OC)ncc2c3n(-c3c(F)cncc3OC)c(=O)n2C)cn1` [Example 13], the IC50 in test [2] is more than 30 µM; in test [3], more than 10 µM; in test [4] (HCT-116, 4 h), less than 200 nM; in test [1], less than 1 nM; in test [1] (10 μM ATP, p53 substrate), less than 1 nM; in test [5], more than 5 µM. Moreover, the IC50 was more than 10 µM in test [6] and more than 30 µM in test [7] (read-out: IC50 (PI3Kbeta)).
For the molecule `COc1cc2ncc3c(c2cc1-c1cnn(C)c1)n(-c1ncc(OCCO)cc1F)c(=O)n3C` [compound 67, 1-[3-Fluoro-5-(2-hydroxy-ethoxy)-2-pyridyl]-7-methoxy-3-methyl-8-(1-methylpyrazol-4-yl)imidazo-[4,5-c]quinolin-2-one], the IC50 in test [1] (10 μM ATP, p53 substrate) is less than 1 nM.
`COc1cc2ncc3c(c2cc1-c1cnn(C)n1)n(-c1c(C)cncc1F)c(=O)n3C` [compound 103, 1-(3-Fluoro-5-methylpyridin-4-yl)-7-methoxy-3-methyl-8-(2-methyl-2H-1,2,3-triazol-4-yl)-1,3-dihydroimidazo-[4,5-c]quinolin-2-one]: the IC50 in test [4] (setting [8]) was 200 to 1000 nM; in test [1] (10 μM ATP, p53 substrate) it was less than 50 nM.
As to `COc1ccc(-c2cc3c(cc2OC)ncc2c3n(-c3c(F)cncc3OC)c(=O)n2C)cn1` [compound 137, 1-(3-Fluoro-5-methoxy-pyridin-4-yl)-7-methoxy-8-(6-methoxypyridin-3-yl)-3-methyl-1,3-dihydroimidazo-[4,5-c]quinolin-2-one], in test [4] (setting [8]), the IC50 is 200 to 1000 nM. The “ratio IC50 (ATM):IC50(PI3Kbeta), selectivity with respect to PI3Kbeta” value in test [7] (IC50 (ATM) at least 2000 times higher compared with IC50 (PI3Kbeta)) is “at least 2000 times”.
Turning to `COc1cc2ncc3c(c2cc1-c1cnn(C)c1)n(-c1ncc(OCS(C)(=O)=O)cc1F)c(=O)n3C` [compound 201, 1-(3-Fluoro-5-methyl-sulfonylmethoxypyridin-2-yl)-7-methoxy-3-methyl-8-(1-methyl-1H-pyrazol-4-yl)-1,3-dihydroimidazo[4,5-c]-quinolin-2-one], the “ratio IC50 (ATM):IC50(mTOR), selectivity with respect to mTOR” value in test [6] (IC50 (ATM) at least 2000 times higher compared with IC50 (mTOR)) is “at least 2000 times”.
